Source: patent US7273863B1, “Benzophenones as inhibitors of reverse transcriptase” (SmithKline Beecham Corporation, priority 1999, dated 2007)

How the values were obtained:
NEV-R = test: MT4 cell assay, antiviral HIV activity (propidium iodide); type: cell-based; settings: Human immunodeficiency virus 1, MT4, read-out: IC50 (nM) Range
WTRVA = test: HeLa cell assay (HIV-LTR β-galactosidase reporter); type: cell-based, HIV-1; settings: Human immunodeficiency virus 1, Virus Type WTRVA, read-out: IC50 (nM) Range
Method: (§1) The HeLa cell assay was performed according to a modification of Kimpton J. and Emerman M., Detection of replication-competent and pseudotyped human immunodeficiency virus with a sensitive cell line on the basis of activation of an integrated β-galactosidase gene, J. Virol. 66:2232-2239 (1992), in which HIV-1 infection is detected by the activation of an HIV-LTR driven β-galactosidase reporter that is integrated into the genome of a CD4^+ HeLa cell line. Quantitation of β-galactosidase is achieved by measuring the activation of a chemiluminescent substrate (Tropix). The concentration of each compound required to inhibit 50% (IC50) of the HIV-1 induced β-galactosidase signal, relative to untreated controls, was determined for each isogenic, recombinant virus.
(§2) HeLa-CD4-LTR-β-gal cells were obtained from the NIH AIDS Research and Reference Reagent Program. Cells were propagated in DMEM containing 10% fetal bovine serum, 0.2 mg/ml geneticin and 0.1 mg/ml hygromycin B. Cells were routinely split by trypsinization when confluency reached 80% (approximately every 2 to 3 days).
(§3) DNA encoding the HIV-1 reverse transcriptase was subcloned from a M13 phage into a general shuttle vector, pBCSK+, as a ˜1.65 kbp EcoRI/HindIII ended DNA fragment. The HIV DNA insert of the resulting plasmid, pRT2, was completely sequenced on both strands prior to use in site directed mutagenesis experiments. Specific amino acid replacements were made using Stratagene Quick Change reagents and mutagenic oligonucleotides from Oligos. Following mutagenesis, the entire mutant RT coding sequence was verified by sequencing both DNA strands.
(§4) Mutant HIV-1 strains were isolated by a modified Recombinant Virus Assay (Kellam P. and Larder B., Recombinant virus assay: a rapid, phenotypic assay for assessment of drug susceptibility of human immunodeficiency virus type 1 isolates, Antimicrobial Agents and Chemotherapy, 38:23-30, 1994). 1×10^7 Jurkat T-cells (maintained in RPMI containing 10% fetal bovine serum, split 1:5 every 5 to 6 days) were co-transfected with EcoRI/HindIII digested mutant RT plasmid and Bst EII-digested HIV-1HXB2ΔRT DNA in the presence of DMRIE-C transfection reagent (Gibco) according to supplier's recommended protocol. Each mutant RT coding sequence was crossed into the RT-deleted HIV-1 viral DNA backbone by in vivo homologous recombination. Transfected cell cultures were expanded and monitored until syncitia formation and CPE were extensive. Virus was harvested by clear spin of the culture supernatants and frozen at −80 C as primary stock. Recombinant progeny virus was sequenced in the RT region to confirm the mutant genotype. Virus stocks were further expanded by infection of Jurkat cells, harvested and stored as frozen aliquots. Stocks were titered in HeLa MAGI cells for assay.
(§5) The HIV-1HXB2 mutants were titered in the HeLa MAGI assay system to determine the relative light units (RLU) per ml, a measure of infectivity relevant for this assay system. Virus stocks were diluted in a 2-fold series into DMEM containing 10% fetal bovine serum plus 20 ug/ml DEAE-dextran and assayed as described in the Experimental Protocol section, below.
(§6) 96-well microtiter plate(s) (Costar #3598) were seeded with 3×10^3 HeLa-CD4-LTR-β-gal in 100 μl DMEM containing 10% fetal bovine serum. Plates were placed in a 37° C., 5% CO2 humidified incubator overnight. The following day, mutant virus stocks were thawed in a room temperature water bath and diluted into DMEM containing 10% fetal bovine serum and 20 μg/ml DEAE-dextran to achieve an input of 1500 to 2000 RLU/ml. All media was removed with an 8 channel manifold aspirator and 35 μl (50 to 70 total RLUs) of diluted virus was added to each well for virus adsorption. Plates were placed in a 37° C., 5% CO2 humidified incubator for 1.5 to 2 hours.
(§7) Compound titration plates were prepared at 1.35× final concentration during the virus adsorption period. […]

[1] = system: isogenic HIV-1 RT mutant virus G190A; test: HeLa cell assay (HIV-LTR β-galactosidase reporter); type: cell-based; settings: Human immunodeficiency virus 1, HeLa, read-out: IC50 (nM) Range
Method: as §1, §2, §3, §4, §5, §6, §7

[2] = system: isogenic HIV-1 RT mutant virus K103N/G190A; test: HeLa cell assay (HIV-LTR β-galactosidase reporter); type: cell-based; settings: Human immunodeficiency virus 1, HeLa, read-out: IC50 (nM) Range
Method: as §1, §2, §3, §4, §5, §6, §7

[3] = system: isogenic HIV-1 RT mutant virus K103N/P225H; test: HeLa cell assay (HIV-LTR β-galactosidase reporter); type: cell-based; settings: Human immunodeficiency virus 1, HeLa, read-out: IC50 (nM) Range
Method: as §1, §2, §3, §4, §5, §6, §7

[4] = system: isogenic HIV-1 RT mutant virus K103N/V108I; test: HeLa cell assay (HIV-LTR β-galactosidase reporter); type: cell-based; settings: Human immunodeficiency virus 1, HeLa, read-out: IC50 (nM) Range
Method: as §1, §2, §3, §4, §5, §6, §7

[5] = system: isogenic HIV-1 RT mutant virus K103N/Y181C; test: HeLa cell assay (HIV-LTR β-galactosidase reporter); type: cell-based; settings: Human immunodeficiency virus 1, HeLa, read-out: IC50 (nM) Range
Method: as §1, §2, §3, §4, §5, §6, §7

[6] = system: isogenic HIV-1 RT mutant virus K103N; test: HeLa cell assay (HIV-LTR β-galactosidase reporter); type: cell-based; settings: Human immunodeficiency virus 1, HeLa, read-out: IC50 (nM) Range
Method: as §1, §2, §3, §4, §5, §6, §7

[7] = system: isogenic HIV-1 RT mutant virus L100I; test: HeLa cell assay (HIV-LTR β-galactosidase reporter); type: cell-based; settings: Human immunodeficiency virus 1, HeLa, read-out: IC50 (nM) Range
Method: as §1, §2, §3, §4, §5, §6, §7

[8] = system: isogenic HIV-1 RT mutant virus P225H; test: HeLa cell assay (HIV-LTR β-galactosidase reporter); type: cell-based; settings: Human immunodeficiency virus 1, HeLa, read-out: IC50 (nM) Range
Method: as §1, §2, §3, §4, §5, §6, §7

[9] = system: isogenic HIV-1 RT mutant virus P236L; test: HeLa cell assay (HIV-LTR β-galactosidase reporter); type: cell-based; settings: Human immunodeficiency virus 1, HeLa, read-out: IC50 (nM) Range
Method: as §1, §2, §3, §4, §5, §6, §7

[10] = system: isogenic HIV-1 RT mutant virus V106A/Y181C; test: HeLa cell assay (HIV-LTR β-galactosidase reporter); type: cell-based; settings: Human immunodeficiency virus 1, HeLa, read-out: IC50 (nM) Range
Method: as §1, §2, §3, §4, §5, §6, §7

[11] = system: isogenic HIV-1 RT mutant virus V106I/Y181C; test: HeLa cell assay (HIV-LTR β-galactosidase reporter); type: cell-based; settings: Human immunodeficiency virus 1, HeLa, read-out: IC50 (nM) Range
Method: as §1, §2, §3, §4, §5, §6, §7

[12] = system: isogenic HIV-1 RT mutant virus V106I; test: HeLa cell assay (HIV-LTR β-galactosidase reporter); type: cell-based; settings: Human immunodeficiency virus 1, HeLa, read-out: IC50 (nM) Range
Method: as §1, §2, §3, §4, §5, §6, §7

[13] = system: isogenic HIV-1 RT mutant virus V108I/Y181C; test: HeLa cell assay (HIV-LTR β-galactosidase reporter); type: cell-based; settings: Human immunodeficiency virus 1, HeLa, read-out: IC50 (nM) Range
Method: as §1, §2, §3, §4, §5, §6, §7

[14] = system: isogenic HIV-1 RT mutant virus V108I; test: HeLa cell assay (HIV-LTR β-galactosidase reporter); type: cell-based; settings: Human immunodeficiency virus 1, HeLa, read-out: IC50 (nM) Range
Method: as §1, §2, §3, §4, §5, §6, §7

[15] = system: isogenic HIV-1 RT mutant virus Y181C; test: HeLa cell assay (HIV-LTR β-galactosidase reporter); type: cell-based; settings: Human immunodeficiency virus 1, HeLa, read-out: IC50 (nM) Range
Method: as §1, §2, §3, §4, §5, §6, §7

Row | Structure (SMILES) | IC50 (NEV-R) [nM] | IC50 (WTRVA) [nM] | IC50 [1] [nM] | IC50 [2] [nM] | IC50 [3] [nM] | IC50 [4] [nM] | IC50 [5] [nM] | IC50 [6] [nM] | IC50 [7] [nM] | IC50 [8] [nM] | IC50 [9] [nM] | IC50 [10] [nM] | IC50 [11] [nM] | IC50 [12] [nM] | IC50 [13] [nM] | IC50 [14] [nM] | IC50 [15] [nM]
1 | Cc1cc(S(N)(=O)=O)ccc1NC(=O)COc1ccc(Cl)cc1C(=O)c1cc(F)cc(F)c1 [Compound 62] | < 10 | < 10 | < 10 | 11 to 100 | < 10 | < 10 | 11 to 100 | < 10 | < 10 | < 10 | 11 to 100 | 11 to 100 | 11 to 100 | < 10 | < 10 | < 10 | < 10
2 | Cc1cc(S(N)(=O)=O)ccc1NC(=O)COc1ccc(Cl)cc1C(=O)c1cc(F)cc(C(F)(F)F)c1 [Compound 78] | < 10 | < 10 | < 10 | 11 to 100 | < 10 | < 10 | < 10 | < 10 | < 10 | < 10 | < 10 | 11 to 100 | – | – | 11 to 100 | < 10 | < 10
3 | Cc1cc2nc[nH]c2cc1NC(=O)COc1ccc(Cl)cc1C(=O)c1cc(F)cc(C(F)(F)F)c1 [Compound 239] | < 10 | < 10 | < 10 | 11 to 100 | < 10 | < 10 | 11 to 100 | < 10 | < 10 | < 10 | < 10 | 101 to 1000 | < 10 | < 10 | < 10 | < 10 | < 10
4 | Cc1cc(OCCCS(N)(=O)=O)ccc1NC(=O)COc1ccc(Cl)cc1C(=O)c1cc(F)cc(C(F)(F)F)c1 [Compound 257] | < 10 | < 10 | < 10 | 11 to 100 | < 10 | < 10 | < 10 | < 10 | < 10 | < 10 | < 10 | 11 to 100 | 11 to 100 | < 10 | < 10 | < 10 | < 10
5 | Cc1cc(S(N)(=O)=O)ccc1NC(=O)COc1ccc(Cl)cc1C(=O)c1cccc(C#N)c1 [Compound 448] | < 10 | – | < 10 | 11 to 100 | < 10 | < 10 | 11 to 100 | < 10 | < 10 | < 10 | 11 to 100 | 11 to 100 | 11 to 100 | < 10 | < 10 | < 10 | < 10
6 | Cc1cc2cn[nH]c2cc1NC(=O)COc1ccc(Cl)cc1C(=O)c1cccc(C#N)c1 [Compound 453] | < 10 | < 10 | < 10 | 11 to 100 | < 10 | < 10 | < 10 | < 10 | < 10 | < 10 | 11 to 100 | 11 to 100 | 11 to 100 | < 10 | < 10 | 101 to 1000 | < 10
7 | Cc1cc(S(N)(=O)=O)ccc1NC(=O)COc1ccc(Cl)cc1C(=O)c1cc(Cl)cc(C#N)c1 [Compound 475] | < 10 | < 10 | < 10 | < 10 | < 10 | < 10 | < 10 | < 10 | < 10 | < 10 | < 10 | < 10 | 11 to 100 | < 10 | < 10 | < 10 | < 10
8 | Cc1cc(C)cc(C(=O)c2cc(Cl)ccc2OCC(=O)Nc2ccc(S(N)(=O)=O)cc2C)c1 [Compound 478] | < 10 | < 10 | < 10 | < 10 | < 10 | < 10 | < 10 | < 10 | < 10 | < 10 | < 10 | < 10 | < 10 | < 10 | < 10 | < 10 | < 10
9 | Cc1cc(S(N)(=O)=O)ccc1NC(=O)COc1ccc(Cl)cc1C(=O)c1cc(F)cc(C#N)c1 [Compound 491] | < 10 | < 10 | < 10 | 11 to 100 | < 10 | < 10 | < 10 | < 10 | < 10 | < 10 | < 10 | < 10 | 11 to 100 | < 10 | < 10 | < 10 | < 10
10 | Cc1cc(C#N)cc(C(=O)c2cc(Cl)ccc2OCC(=O)Nc2ccc(S(N)(=O)=O)cc2C)c1 [Compound 564] | < 10 | < 10 | < 10 | < 10 | < 10 | < 10 | < 10 | < 10 | < 10 | < 10 | < 10 | < 10 | < 10 | < 10 | < 10 | – | < 10
11 | Cc1cc(S(N)(=O)=O)ccc1NC(=O)COc1ccc(Cl)cc1C(=O)c1cccc(C#N)n1 [Compound 637] | < 10 | < 10 | < 10 | < 10 | < 10 | < 10 | < 10 | < 10 | < 10 | < 10 | < 10 | < 10 | < 10 | < 10 | < 10 | – | < 10
